Where two headings read alike, the source gives them in different places.
What was measured:
Assay type in all cases: in vivo
[1] = system: common ragweed (Ambrosia artemisizfolia L., AMBEL); assay: Pre-emerge test, greenhouse herbicide activity screening; conditions: for Pre-emerge Herbicidal Activity AMBEL (phytotoxicity rating, scale 0-100): rated 14 days after application, 0 = no damage, 100 = complete death
Method in brief: (§1)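 Compounds in acetone were track-sprayed at 15-1000 g ai/ha (187 l/ha) on sandy loam pots: pre-emerge one day after seeding, post-emerge at 2-3 leaf stage with 0.25% v/v non-ionic surfactant. Phytotoxicity was rated 14 days later on a 0 (no damage) to 100 (complete death) scale.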

[2] = system: barnyardgrass (Echinochloa crus-galli, ECHCG); assay: as above; conditions: for Pre-emerge Herbicidal Activity ECHCG (phytotoxicity rating, scale 0-100): rated 14 days after application, 0 = no damage, 100 = complete death; for pest or weed control at 63 g/ha / pest or weed control at 250 g/ha: Echinochloa crus-galli, pre-emergence, 336 h, read-out: Pre-emerge Herbicidal Activity ECHCG
Method in brief: as §1

[3] = system: lambsquarters (Chenopodium album, CHEAL); assay: as above; conditions: for Pre-emerge Herbicidal Activity CHEAL (phytotoxicity rating, scale 0-100): rated 14 days after application, 0 = no damage, 100 = complete death; for pest or weed control at 63 g/ha / pest or weed control at 250 g/ha: Chenopodium album, pre-emergence, 336 h, read-out: Pre-emerge Herbicidal Activity CHEAL
Method in brief: as §1

[4] = system: ivyleaf morningglory (Ipomoea hederacea, IPOHE); assay: as above; conditions: for Pre-emerge Herbicidal Activity IPOHE (phytotoxicity rating, scale 0-100): rated 14 days after application, 0 = no damage, 100 = complete death; for pest or weed control at 63 g/ha / pest or weed control at 250 g/ha: Ipomoea, pre-emergence, 336 h, read-out: Pre-emerge Herbicidal Activity IPOHE
Method in brief: as §1

[5] = system: common ragweed (Ambrosia artemisizfolia L., AMBEL); assay: Post-emerge test, greenhouse herbicide activity screening; conditions: for phytotoxicity rating AMBEL: rating scale 0-100
Method in brief: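 Sandy loam pots; pre-emerge: sown 1 d pre-spray, surface-watered after, then bottom-watered. Post-emerge: sown 8–21 d before, 2–3 leaf stage, + 0.25% v/v NIS, bottom-watered. Acetone, 187 l/ha track spray, 15–1000 g ai/ha. 0–100 injury score, day 14.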

[6] = system: redroot pigweed (Amaranthus retroflexus, AMARE); assay: Pre-emerge test, greenhouse herbicide activity screening; conditions: for Pre-emerge Herbicidal Activity AMARE (phytotoxicity rating, scale 0-100): rated 14 days after application, 0 = no damage, 100 = complete death; for pest or weed control at 63 g/ha / pest or weed control at 250 g/ha: Amaranthus retroflexus, pre-emergence, 336 h, read-out: Pre-emerge Herbicidal Activity AMARE
Method in brief: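 Rating: 0–100 visual injury, 14 DAA. Application: acetone, 187 l/ha, 15–1000 g ai/ha, flat-fan track sprayer with nozzle 40–45 cm above soil or canopy. Post-emerge runs used 0.25% v/v surfactant on 2–3 leaf plants.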

[7] = 63 g ai/ha, phytotoxicity rating 0-100 (0 no damage, 100 complete death), 14 days after application
[8] = 250 g ai/ha, phytotoxicity rating 0-100 (0 no damage, 100 complete death), 14 days after application
[9] = 63 g ai/ha, phytotoxicity rating 0-100, 14 days after application
[10] = 250 g ai/ha, phytotoxicity rating 0-100, 14 days after application
[11] = pre-emerge, rate 63 g ai/ha, phytotoxicity rating 0-100 at 14 days after application
[12] = pre-emerge, rate 250 g ai/ha, phytotoxicity rating 0-100 at 14 days after application
[13] = post-emerge, 63 g ai/ha, phytotoxicity rating 0-100 at 14 days after application
[14] = post-emerge, 250 g ai/ha, phytotoxicity rating 0-100 at 14 days after application

## COc1c(Cl)cc(F)c(-n2c(=O)cc(C(F)(F)F)n(C)c2=O)c1[N+](=O)[O-] [Compound 1-5, 3-(4-chloro-6-fluoro-3-methoxy-2-nitrophenyl)-1-methyl-6-trifluoromethyl-2,4(1H, 3H)-pyrimidinedione]
[1]; 63 g ai/ha, pre-emerge
  Pre-emerge Herbicidal Activity AMBEL (phytotoxicity rating, scale 0-100): 0
[1]; 250 g ai/ha, pre-emerge
  Pre-emerge Herbicidal Activity AMBEL (phytotoxicity rating, scale 0-100): 20
[2]; 63 g ai/ha, pre-emerge
  Pre-emerge Herbicidal Activity ECHCG (phytotoxicity rating, scale 0-100): 0
[2]; 250 g ai/ha, pre-emerge
  Pre-emerge Herbicidal Activity ECHCG (phytotoxicity rating, scale 0-100): 0
[3]; 63 g ai/ha, pre-emerge
  Pre-emerge Herbicidal Activity CHEAL (phytotoxicity rating, scale 0-100): 60
[3]; 250 g ai/ha, pre-emerge
  Pre-emerge Herbicidal Activity CHEAL (phytotoxicity rating, scale 0-100): 100
[4]; 63 g ai/ha, pre-emerge
  Pre-emerge Herbicidal Activity IPOHE (phytotoxicity rating, scale 0-100): 0
[4]; 250 g ai/ha, pre-emerge
  Pre-emerge Herbicidal Activity IPOHE (phytotoxicity rating, scale 0-100): 10
[5]; [7]
  Post-emerge Herbicidal Activity AMBEL: 0
[5]; [8]
  Post-emerge Herbicidal Activity AMBEL: 30
[6]; 63 g ai/ha, pre-emerge
  Pre-emerge Herbicidal Activity AMARE (phytotoxicity rating, scale 0-100): 20
[6]; 250 g ai/ha, pre-emerge
  Pre-emerge Herbicidal Activity AMARE (phytotoxicity rating, scale 0-100): 95

## Cn1c(C(F)(F)F)cc(=O)n(-c2c(F)cc(Cl)c(O)c2N)c1=O [Compound 1-16, 3-(2-amino-4-chloro-6-fluoro-3-hydroxyphenyl)-1-methyl-6-trifluoromethyl-2,4(1H, 3H)-pyrimidinedione]
[1]; 63 g ai/ha, pre-emerge
  Pre-emerge Herbicidal Activity AMBEL (phytotoxicity rating, scale 0-100): 0
[1]; 250 g ai/ha, pre-emerge
  Pre-emerge Herbicidal Activity AMBEL (phytotoxicity rating, scale 0-100): 0
[2]; 63 g ai/ha, pre-emerge
  Pre-emerge Herbicidal Activity ECHCG (phytotoxicity rating, scale 0-100): 0
[2]; 250 g ai/ha, pre-emerge
  Pre-emerge Herbicidal Activity ECHCG (phytotoxicity rating, scale 0-100): 0
[3]; 63 g ai/ha, pre-emerge
  Pre-emerge Herbicidal Activity CHEAL (phytotoxicity rating, scale 0-100): 0
[3]; 250 g ai/ha, pre-emerge
  Pre-emerge Herbicidal Activity CHEAL (phytotoxicity rating, scale 0-100): 70
[4]; 63 g ai/ha, pre-emerge
  Pre-emerge Herbicidal Activity IPOHE (phytotoxicity rating, scale 0-100): 0
[4]; 250 g ai/ha, pre-emerge
  Pre-emerge Herbicidal Activity IPOHE (phytotoxicity rating, scale 0-100): 0
[5]; [7]
  Post-emerge Herbicidal Activity AMBEL: 0
[5]; [8]
  Post-emerge Herbicidal Activity AMBEL: 0
[6]; 63 g ai/ha, pre-emerge
  Pre-emerge Herbicidal Activity AMARE (phytotoxicity rating, scale 0-100): 0
[6]; 250 g ai/ha, pre-emerge
  Pre-emerge Herbicidal Activity AMARE (phytotoxicity rating, scale 0-100): 0

## COc1c(Cl)cc(F)c(-n2c(=O)cc(C(F)(F)F)n(C)c2=O)c1N(C(C)=O)C(C)=O [Compound 2-2, 3-(4-chloro-2-diacetylamino-6-fluoro-3-methoxyphenyl)-1-methyl-6-trifluoromethyl-2,4(1H, 3H)-pyrimidinedione]
[1]; 63 g ai/ha, pre-emerge
  Pre-emerge Herbicidal Activity AMBEL (phytotoxicity rating, scale 0-100): 40
[1]; 250 g ai/ha, pre-emerge
  Pre-emerge Herbicidal Activity AMBEL (phytotoxicity rating, scale 0-100): 100
[2]; 63 g ai/ha, pre-emerge
  Pre-emerge Herbicidal Activity ECHCG (phytotoxicity rating, scale 0-100): 30
[2]; 250 g ai/ha, pre-emerge
  Pre-emerge Herbicidal Activity ECHCG (phytotoxicity rating, scale 0-100): 90
[3]; 63 g ai/ha, pre-emerge
  Pre-emerge Herbicidal Activity CHEAL (phytotoxicity rating, scale 0-100): 100
[3]; 250 g ai/ha, pre-emerge
  Pre-emerge Herbicidal Activity CHEAL (phytotoxicity rating, scale 0-100): 100
[4]; 63 g ai/ha, pre-emerge
  Pre-emerge Herbicidal Activity IPOHE (phytotoxicity rating, scale 0-100): 90
[4]; 250 g ai/ha, pre-emerge
  Pre-emerge Herbicidal Activity IPOHE (phytotoxicity rating, scale 0-100): 100
[5]; [7]
  Post-emerge Herbicidal Activity AMBEL: 0
[5]; [8]
  Post-emerge Herbicidal Activity AMBEL: 70
[6]; 63 g ai/ha, pre-emerge
  Pre-emerge Herbicidal Activity AMARE (phytotoxicity rating, scale 0-100): 100
[6]; 250 g ai/ha, pre-emerge
  Pre-emerge Herbicidal Activity AMARE (phytotoxicity rating, scale 0-100): 100

## CNC(=O)N(C(=O)NC)c1c(OC)c(Cl)cc(F)c1-n1c(=O)cc(C(F)(F)F)n(C)c1=O [Compound 3-1, 3-[2-bis(methylaminocarbonyl)amino-4-chloro-6-fluoro-3-methoxyphenyl]-1-methyl-6-trifluoromethyl-2,4(1H, 3H)-pyrimidinedione]
[1]; [9]
  Pre-emerge Herbicidal Activity AMBEL: 0
[1]; [10]
  Pre-emerge Herbicidal Activity AMBEL: 0
[2]; [9]
  pest or weed control at 63 g/ha: 0%
[2]; [10]
  pest or weed control at 250 g/ha: 0%
[3]; [9]
  pest or weed control at 63 g/ha: 20%
[3]; [10]
  pest or weed control at 250 g/ha: 80%
[4]; [9]
  pest or weed control at 63 g/ha: 0%
[4]; [10]
  pest or weed control at 250 g/ha: 0%
[5]; post-emerge, 63 g ai/ha, 14 days after application
  phytotoxicity rating AMBEL: 0
[5]; post-emerge, 250 g ai/ha, 14 days after application
  phytotoxicity rating AMBEL: 0
[6]; [9]
  pest or weed control at 63 g/ha: 0%
[6]; [10]
  pest or weed control at 250 g/ha: 30%

## COc1c(Cl)cc(F)c(-n2c(=O)cc(C(F)(F)F)n(C)c2=O)c1NC(N)=O [Compound 3-26, 3-(2-aminocarbonylamino-4-chloro-6-fluoro-3-methoxyphenyl)-1-methyl-6-trifluoromethyl-2,4(1H, 3H)-pyrimidinedione]
[1]; [9]
  Pre-emerge Herbicidal Activity AMBEL: 10
[1]; [10]
  Pre-emerge Herbicidal Activity AMBEL: 90
[2]; [9]
  pest or weed control at 63 g/ha: 0%
[2]; [10]
  pest or weed control at 250 g/ha: 30%
[3]; [9]
  pest or weed control at 63 g/ha: 80%
[3]; [10]
  pest or weed control at 250 g/ha: 90%
[4]; [9]
  pest or weed control at 63 g/ha: 50%
[4]; [10]
  pest or weed control at 250 g/ha: 100%
[6]; [9]
  pest or weed control at 63 g/ha: 80%
[6]; [10]
  pest or weed control at 250 g/ha: 100%

## COc1c(Cl)cc(F)c(-c2nn(C)c(C(F)(F)F)c2Cl)c1N [Compound 7-2, 4-chloro-3-(2-amino-4-chloro-6-fluoro3-metoxyphenyl)-1-methyl-5-trifluoromethyl-1H-pyrazole]
[1]; [11]
  Pre-emerge Herbicidal Activity AMBEL: 80
[1]; [12]
  Pre-emerge Herbicidal Activity AMBEL: 100
[2]; [11]
  pest or weed control at 63 g/ha: 70%
[2]; [12]
  pest or weed control at 250 g/ha: 100%
[3]; [11]
  pest or weed control at 63 g/ha: 100%
[3]; [12]
  pest or weed control at 250 g/ha: 100%
[4]; [11]
  pest or weed control at 63 g/ha: 60%
[4]; [12]
  pest or weed control at 250 g/ha: 80%
[5]; [13]
  Post-emerge Herbicidal Activity AMBEL: 0
[5]; [14]
  Post-emerge Herbicidal Activity AMBEL: 10
[6]; [11]
  pest or weed control at 63 g/ha: 100%
[6]; [12]
  pest or weed control at 250 g/ha: 100%

## Nc1c(O)c(Cl)cc(F)c1N1C(=O)C2=C(CCCC2)C1=O [Compound 8-2, 2-amino-6-chloro-4-fluoro-3-tetrahydrophthalimido)phenol]
[2]; [11]
  pest or weed control at 63 g/ha: 0%
[2]; [12]
  pest or weed control at 250 g/ha: 40%
[3]; [11]
  pest or weed control at 63 g/ha: 80%
[3]; [12]
  pest or weed control at 250 g/ha: 100%
[4]; [11]
  pest or weed control at 63 g/ha: 0%
[4]; [12]
  pest or weed control at 250 g/ha: 0%
[5]; [13]
  Post-emerge Herbicidal Activity AMBEL: 30
[5]; [14]
  Post-emerge Herbicidal Activity AMBEL: 90
[6]; [11]
  pest or weed control at 63 g/ha: 90%
[6]; [12]
  pest or weed control at 250 g/ha: 100%

From patent publication US6355799B1, “Substituted benzene compounds, process for their preparation, and herbicidal and defoliant compositions containing them” (ISK Americas Incorporated, priority 1997, dated 2002)
